Common to all, as to format: cell-based
Assay [1] deals with constitutive active colorectal cancer cell (CRC) Wnt pathway. The assay is described as follows: HCT116 Super TopFlash cellular reporter assay (constitutive active Wnt pathway). Conditions: Homo sapiens, HCT-116, 36 h, HCT116 TOP reporter cells, luciferase expression, 36 hours incubation, 50 μM to 15 nM. The essentials: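 HCT116 cells (β-catenin ΔS45) stably carrying Super TopFlash, with a parallel FOP-control line, were plated 24 h ahead. They were exposed 36 h at 37 °C, 5% CO2 to compound from a 50 μM–15 nM, 3.16-fold pre-dilution series in CAFTY buffer (pH 7.4, 2 mM Ca2+, 0.01% BSA). Wnt signalling was read as luciferase luminescence.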

Assay [2] concerns HCT116 FOP control reporter cell line. The assay is described as follows: HCT116 FOP control vector reporter assay (non-functional TCF elements). Conditions: Homo sapiens, HCT-116, 36 h, HCT116 FOP control reporter cells, luciferase expression, 36 hours incubation, 50 μM to 15 nM; read-out: HCT116 FOPFlash IC50. The essentials:
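Stable HCT116 line carrying the non-functional FOP luciferase construct, 10000 cells/well plated 24 hrs before. Compounds 50 μM to 15 nM (3.16-fold steps) in CAFTY buffer pH 7.4 with 2 mM Ca2+, 36 hours at 37° C; luciferase luminescence read.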
(In a reporter assay the amount or activity of a reporter protein is the signal.)

In a further assay the test system is wildtype Wnt pathway. The assay is described as follows: HEK293 Super TopFlash cellular reporter assay, Wnt-3a stimulated (wildtype Wnt pathway). The following applies: Homo sapiens; HEK293 TOP reporter cells, EC50 concentration of recombinant Wnt-3a, 16 hours incubation; read-out: HEK TOP OncoFlash IC50. The essentials:
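Stable HEK293 Super TopFlash and FOP reporter cells stimulated with recombinant human Wnt-3a (2500–5 ng/ml, two-fold steps). Compounds tested 50 μM to 15 nM in 3.16-fold steps in CAFTY buffer pH 7.4 with 2 mM Ca2+ and 0.01% BSA; luciferase read-out.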

Assay [3] deals with HEK293 FOP control reporter cell line. The assay is described as follows: HEK293 FOP control vector reporter assay. Conditions: Homo sapiens; HEK293 FOP control reporter cells, EC50 concentration of recombinant Wnt-3a, 16 hours incubation; read-out: HEK FOP IC50. The essentials:
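Stable HEK293 cells carrying FOP control vector (non-functional TCF sites), 10000 cells/well plated 24 h before, stimulated with recombinant human Wnt-3a at 2500–5 ng/ml in two-fold steps. Compounds from 50 μM to 15 nM (3.16-fold) in CAFTY buffer pH 7.4 with 2 mM Ca2+, 0.01% BSA, run in parallel with TOP line; luciferase read-out.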

One may read the IC50 as the concentration at which inhibition is half-maximal.

Where only a bound is given, the exact number is not on record here.

Take `O=C(CN1CCOCC1)Nc1cc(NC(=O)c2ccc(-c3ccc(F)cc3)cc2)ccc1OC(F)(F)F` [Example 75, 4′-fluoro-N-{3-[(morpholin-4-ylacetyl)amino]-4-(trifluoromethoxy)phenyl}biphenyl-4-carboxamide]: the IC50 was 145 nM in assay [1], at least 50 µM in assay [2], 850 nM with wildtype Wnt pathway and 40 µM in assay [3].

These data come from patent US20160052898A1, “NOVEL COMPOUNDS” (BAYER PHARMA AKTIENGESELLSCHAFT, priority 2013, published 2016).
